This is an account of results in ChEMBL document CHEMBL5029152, “Discovery of Highly Potent and Selective IRAK1 Degraders to Probe Scaffolding Functions of IRAK1 in ABC DLBCL” (J Med Chem, 2021).

For this assay, the target named is T1, Serine/threonine-protein kinase 17B (Homo sapiens) (UniProt O94768).
T1 sequence (whole entry): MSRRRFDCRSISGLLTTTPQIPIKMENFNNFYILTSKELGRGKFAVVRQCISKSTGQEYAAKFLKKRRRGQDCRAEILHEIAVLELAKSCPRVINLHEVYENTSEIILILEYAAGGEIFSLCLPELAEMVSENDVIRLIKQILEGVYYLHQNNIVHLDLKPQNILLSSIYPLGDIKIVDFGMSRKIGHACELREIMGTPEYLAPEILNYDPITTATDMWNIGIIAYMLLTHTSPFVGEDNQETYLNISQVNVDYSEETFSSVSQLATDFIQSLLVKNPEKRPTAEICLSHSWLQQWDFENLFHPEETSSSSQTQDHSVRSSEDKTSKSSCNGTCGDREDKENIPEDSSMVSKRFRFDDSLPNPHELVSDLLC
In words: Inhibition of wild-type human full length DRAK2 (M1 to C372 residues) expressed in bacterial expression system at 1 uM by Kinomescan method.

Active and inactive are the calls of the source. The rule behind the calls is not given here.

Turning to `COc1cc(N2CCC(OCC(=O)N[C@H](C(=O)N3C[C@H](O)C[C@H]3C(=O)N[C@@H](C)c3ccc(-c4scnc4C)cc3)C(C)(C)C)CC2)ccc1NC(=O)c1cccc(-c2ccn[nH]2)n1`, the inhibition entry is “Active”.
